These are literature values, as cited in US6384081B2, “Treatment of diseases of the eye characterized by the formation of metalloproteinase” (priority 1998, dated 2002).

Where two headings read alike, the source gives them in different places.

Data set [1] has as its system collagenase purified from culture medium of alkali-burned rabbit corneas.
Data set [2] concerns epithelial healing in the rabbit alkali-burn model. Conditions: for mean percentage of epithelial defects: at 14 days.
The conditions of data set [3]: rabbit eye, 7 mg/kg intravenously.

Consider `O=C1O[C@H]([C@@H](O)CO)C([O-])=C1O.[Na+]` [Sodium ascorbate], for which the “inhibition of collagenase-mediated hydrolysis” value in data set [1] (either collagen or the synthetic substrate) is “did not inhibit”.
As to `CCCC(NC(CC(C)C)C(=O)NC(Cc1ccccc1)C(=O)NC(C)C(N)=O)C(=O)O` (stereo not drawn) [CH3(CH2)2(DL)CH-(COOH)-Leu-Phe-Ala-NH2], the IC50 in data set [1] (substrate not stated, read-out: IC50) is 25 µM.
As for `CC(CN1CC(=O)NC(=O)C1)N1CC(=O)NC(=O)C1` (centres unmarked) [Razoxane], the collagenase production result with collagenase was “inhibited collagenase production”. For the same molecule, the TIMP production result in the data set on TIMP was “stimulated TIMP production”.
Consider `CC(=O)N[C@@H](CS)C(=O)O` [N-acetylcysteine], for which the IC50 in data set [1] (natural substrate (collagen), read-out: IC50) is below 10000 µM; in data set [1] (synthetic substrate, read-out: IC50), 2700 µM.
As for `O=C([O-])CC(O)(CC(=O)[O-])C(=O)[O-].[Na+].[Na+].[Na+]` [sodium citrate], in data set [1] (excess Ca2+), the “reversal of inhibition by excess Ca2+” value is listed as “could be reversed by excess Ca2+”.
Take `CC(C)CC(CS)C(=O)NC(Cc1ccccc1)C(=O)NC(C)C(N)=O` (stereo not drawn) [HSCH2(DL)CH[CH2 CH(CH3)2]CO-Phe-Ala-NH2]: in data set [1] (synthetic substrate Dnp-Pro-Leu-Gly-Leu-Trp-Ala-D-Arg-NH2, read-out: 50% inhibition (IC50)), the IC50 was around 0.01 µM.
doxycycline hyclate: the “mean percentage of epithelial defects” value in data set [2] (1.5 mg/kg orally daily for 14 days) is 50.7%; in data set [2] (5 mg/kg orally daily for 14 days), 7.1%. The corneal reepithelialization entry in data set [2] (5 mg/kg/day, systemically administered) is listed as “promotes corneal reepithelialization”.
With spiramycin, the intraocular penetration result (rabbit, in vivo) is reported as “best results”.
For `C[C@H]1c2cccc(O)c2C(=O)C2=C(O)[C@]3(O)C(=O)C(C(N)=O)=C(O)[C@@H](N(C)C)[C@@H]3[C@@H](O)[C@@H]21` [doxycycline], in data set [3], the “Doxycycline concentration in the cornea versus aqueous humor” value is on record as “exceeded that in the aqueous humor”, the “Vitreous body doxycycline concentration” value was 0.3 microgram/g and the “penetrability into the tissues” value is “good penetrability”. In addition, in data set [3] (long-lasting), the “antibiotic concentration in all vascularized ocular structures” value is reported as at least 1 microgram/g.
Consider `CCC[C@@H]1C[C@@H](C(=O)N[C@@H]([C@H]2O[C@H](SC)[C@H](O)[C@@H](O)[C@H]2O)[C@H](C)Cl)N(C)C1` [clindamycin], for which the intraocular penetration result (sub-conjunctival, retrobulbar and intramuscular, one shot, healthy rabbit eye) is “best results”.

What is called IC50 is the concentration at which inhibition is half-maximal.
